In patent US10233188B2, “CDK2/4/6 inhibitors” (priority 2016, dated 2019):

Tests used:
[1] = biological target: CDK2/Cyclin E1 (Homo sapiens (Human), UniProt P24941); assay: biochemical; conditions: CDK2_Ki (nM), phosphorylated CDK2/Cyclin E1, 150 μM ATP, Morrison tight-binding fit
Experimental: The assay was initiated with the addition of ATP, following a fifteen minutes pre-incubation of enzyme and inhibitor at room temperature in the reaction mixture. The reaction was stopped after 45 minutes at room temperature by the addition of 50 μL of 80 mM EDTA, pH 7.5.

[2] = biological target: CDK6/Cyclin D1 (Homo sapiens (Human), UniProt Q00534); assay: biochemical; conditions: CDK6_Ki (nM), non-phosphorylated CDK6/Cyclin D1, 2 mM ATP, Morrison fit
Sequence of CDK6/Cyclin D1 (Q00534 whole entry): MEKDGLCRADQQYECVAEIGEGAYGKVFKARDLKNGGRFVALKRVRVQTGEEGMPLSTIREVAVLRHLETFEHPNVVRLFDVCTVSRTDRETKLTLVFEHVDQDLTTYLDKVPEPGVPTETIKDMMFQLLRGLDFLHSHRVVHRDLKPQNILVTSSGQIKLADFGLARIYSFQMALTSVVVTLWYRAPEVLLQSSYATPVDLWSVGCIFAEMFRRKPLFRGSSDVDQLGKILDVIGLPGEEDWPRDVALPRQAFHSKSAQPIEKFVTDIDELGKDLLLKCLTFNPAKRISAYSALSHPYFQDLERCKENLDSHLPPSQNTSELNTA
Sequence of CDK6/Cyclin D1 (P24385 whole entry partner): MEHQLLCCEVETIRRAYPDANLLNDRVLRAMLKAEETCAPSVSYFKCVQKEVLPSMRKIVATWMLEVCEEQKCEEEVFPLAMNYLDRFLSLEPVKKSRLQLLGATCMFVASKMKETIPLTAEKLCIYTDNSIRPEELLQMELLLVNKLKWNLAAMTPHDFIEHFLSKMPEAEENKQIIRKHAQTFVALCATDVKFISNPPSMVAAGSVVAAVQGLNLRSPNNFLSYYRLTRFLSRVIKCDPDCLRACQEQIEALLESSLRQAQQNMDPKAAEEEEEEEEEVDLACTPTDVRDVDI

SMILES | Ki [1] [nM] | Ki [2] [nM]
Cc1cc2cnc(NC3CCN(S(=O)(=O)C(F)(F)F)CC3)nc2n([C@H]2CCC[C@]2(C)O)c1=O (single isomer, unassigned) [Example 182, (+)-8-[(1R*,2R*)-2-hydroxy-2-methylcyclopentyl]-6-methyl-2-({1-[(trifluoromethyl)sulfonyl]piperidin-4-yl}amino)pyrido[2,3-d]pyrimidin-7(8H)-one] | 12.6 | 9.5
COC(C)(C)CNS(=O)(=O)N1CCC(Nc2ncc3cc(C)c(=O)n([C@@H]4CCC[C@@]4(C)O)c3n2)CC1 (single isomer, unassigned) [Example 98, (−)-4-({8-[(1R*,2R*)-2-hydroxy-2-methylcyclopentyl]-6-methyl-7-oxo-7,8-dihydropyrido[2,3-d]pyrimidin-2-yl}amino)-N-(2-methoxy-2-methylpropyl)piperidine-1-sulfonamide] | 0.33 | 0.74
Cc1cc2cnc(NC3CCN(S(C)(=O)=O)CC3)nc2n([C@H]2COC[C@]2(C)O)c1=O (single isomer, unassigned) [Example 198, (+)-8-[(3R*,4S*)-4-hydroxy-4-methyltetrahydrofuran-3-yl]-6-methyl-2-{[1-(methylsulfonyl)piperidin-4-yl]amino}pyrido[2,3-d]pyrimidin-7(8H)-one] | 26.9 | 31
Cc1cc2cnc(NC3CCN(S(=O)(=O)C4CCS(=O)(=O)C4)CC3)nc2n([C@H]2CCC[C@]2(C)O)c1=O (single isomer, unassigned; isomer b) [Example 107, (+)-2-[(1-{[(3ξ)-1,1-dioxidotetrahydrothiophen-3-yl]sulfonyl}piperidin-4-yl)amino]-8-[(1R*,2R*)-2-hydroxy-2-methylcyclopentyl]-6-methylpyrido[2,3-d]pyrimidin-7(8H)-one-Isomer B] | 9.91 | 184
Cc1cc2cnc(NC3CCN(S(=O)(=O)NCC(C)(F)F)CC3)nc2n([C@@H]2CCC[C@@]2(C)O)c1=O (single isomer, unassigned) [Example 104, (−)-N-(2,2-difluoropropyl)-4-({8-[(1R*,2R*)-2-hydroxy-2-methylcyclopentyl]-6-methyl-7-oxo-7,8-dihydropyrido[2,3-d]pyrimidin-2-yl}amino)piperidine-1-sulfonamide] | 0.14 | 0.77
CS(=O)(=O)N1CCC(Nc2ncc3cc(C(F)F)c(=O)n([C@@H]4CC[C@@H](O)C4)c3n2)CC1 (single isomer, unassigned) [Example 133, (−)-6-(difluoromethyl)-8-[(1R*,3R*)-3-hydroxycyclopentyl]-2-{[1-(methylsulfonyl)piperidin-4-yl]amino}pyrido[2,3-d]pyrimidin-7(8H)-one] | 2.37 | 0.94
C[C@]1(O)CCC[C@@H]1n1c(=O)c(C(F)F)cc2cnc(NC3CCN(S(N)(=O)=O)CC3)nc21 (single isomer, unassigned) [Example 188, (+)-4-({6-(difluoromethyl)-8-[(1R*,2R*)-2-hydroxy-2-methylcyclopentyl]-7-oxo-7,8-dihydropyrido[2,3-d]pyrimidin-2-yl}amino)piperidine-1-sulfonamide] | 0.7 | 2.4
CNS(=O)(=O)N1CCC(Nc2ncc3cc(F)c(=O)n([C@@H]4CCC[C@@]4(C)O)c3n2)CC1 (single isomer, unassigned) [Example 124, (−)-4-({6-fluoro-8-[(1R*,2R*)-2-hydroxy-2-methylcyclopentyl]-7-oxo-7,8-dihydropyrido[2,3-d]pyrimidin-2-yl}amino)-N-methylpiperidine-1-sulfonamide] | 0.69 | 3.84
C[C@@H]1[C@H](O)CC[C@H]1n1c(=O)c(C(F)F)cc2cnc(NC3CCN(S(C)(=O)=O)CC3)nc21 (single isomer, unassigned) [Example 204, (−)-6-(difluoromethyl)-8-[(1R*,2S*,3R*)-3-hydroxy-2-methylcyclopentyl]-2-{[1-(methylsulfonyl)piperidin-4-yl]amino}pyrido[2,3-d]pyrimidin-7(8H)-one] | 0.51 | 0.18
Cc1cc2cnc(NC3CCN(S(=O)(=O)C4CCS(=O)(=O)C4)CC3)nc2n([C@@H]2CCC[C@@]2(C)O)c1=O (single isomer, unassigned; isomer d) [Example 109, (−)-2-[(1-{[(3ξ)-1,1-dioxidotetrahydrothiophen-3-yl]sulfonyl}piperidin-4-yl)amino]-8-[(1R*,2R*)-2-hydroxy-2-methylcyclopentyl]-6-methylpyrido[2,3-d]pyrimidin-7(8H)-one-Isomer D] | 0.14 | 0.19

Continued, values first:

Ki [1] [nM] | Ki [2] [nM] | SMILES
2.87 | 4.15 | Cc1cc2cnc(NC3CCN(S(=O)(=O)CC(F)(F)F)CC3)nc2n([C@H]2CCC[C@]2(C)O)c1=O (single isomer, unassigned) [Example 119, (+)-8-[(1R*,2R*)-2-hydroxy-2-methylcyclopentyl]-6-methyl-2-({1-[(2,2,2-trifluoroethyl)sulfonyl]piperidin-4-yl}amino)pyrido[2,3-d]pyrimidin-7(8H)-one]
4.07 | 6.6 | CCS(=O)(=O)N1CCC(Nc2ncc3ccc(=O)n([C@H]4CCC[C@]4(C)O)c3n2)CC1 (single isomer, unassigned) [Example 77, (+)-2-{[1-(ethylsulfonyl)piperidin-4-yl]amino}-8-[(1R*,2R*)-2-hydroxy-2-methylcyclopentyl]pyrido[2,3-d]pyrimidin-7(8H)-one]
4.13 | 3.37 | C[C@]1(O)CCC[C@@H]1n1c(=O)ccc2cnc(NC3CCN(S(=O)(=O)CF)CC3)nc21 (single isomer, unassigned) [Example 59, (+)-2-({1-[(fluoromethyl)sulfonyl]piperidin-4-yl}amino)-8-[(1R*,2R*)-2-hydroxy-2-methylcyclopentyl]pyrido[2,3-d]pyrimidin-7(8H)-one]
1.57 | 2.84 | CS(=O)(=O)N1CCC(Nc2ncc3ccc(=O)n([C@H]4CC[C@@H](O)CC4)c3n2)CC1 [Example 215, 8-(cis-4-hydroxycyclohexyl)-2-{[1-(methylsulfonyl)piperidin-4-yl]amino}pyrido[2,3-d]pyrimidin-7(8H)-one]
5.72 | 3.84 | CC[C@]1(O)CCC[C@@H]1n1c(=O)c(Cl)cc2cnc(NC3CCN(S(C)(=O)=O)CC3)nc21 (single isomer, unassigned) [Example 196, (+)-6-chloro-8-[(1R*,2R*)-2-ethyl-2-hydroxycyclopentyl]-2-{[1-(methylsulfonyl)piperidin-4-yl]amino}pyrido[2,3-d]pyrimidin-7(8H)-one]
0.1 | 1.99 | C[C@@]1(O)CCC[C@H]1n1c(=O)ccc2cnc(NC3CCN(S(N)(=O)=O)CC3)nc21 (single isomer, unassigned) [Example 183, (−)-4-({8-[(1R*,2R*)-2-hydroxy-2-methylcyclopentyl]-7-oxo-7,8-dihydropyrido[2,3-d]pyrimidin-2-yl}amino)piperidine-1-sulfonamide]
0.84 | 1.1 | Cc1cc2cnc(NC3CCN(S(C)(=O)=O)CC3)nc2n([C@@H]2CCC[C@@H](O)C2)c1=O (single isomer, unassigned) [Example 32, (+)-8-[(1R*,3R*)-3-hydroxycyclohexyl]-6-methyl-2-{[1-(methylsulfonyl)piperidin-4-yl]amino}pyrido[2,3-d]pyrimidin-7(8H)-one]
2.23 | 6.71 | CC1CCC[C@@H]1n1c(=O)c(CC(N)=O)cc2cnc(NC3CCN(S(C)(=O)=O)CC3)nc21 (stereo in doubt) [Example 166, 2-(8-[(1S,2S)-2-methylcyclopentyl]-2-{[1-(methylsulfonyl)piperidin-4-yl]amino}-7-oxo-7,8-dihydropyrido[2,3-d]pyrimidin-6-yl)acetamide]
1.79 | 2.33 | CC(C)(O)CS(=O)(=O)N1CCC(Nc2ncc3ccc(=O)n(C4CCCC4)c3n2)CC1 [Example 17, 8-cyclopentyl-2-({1-[(2-hydroxy-2-methylpropyl)sulfonyl]piperidin-4-yl}amino)pyrido[2,3-d]pyrimidin-7(8H)-one]
0.2 | 1.01 | C[C@@]1(O)CCC[C@H]1n1c(=O)ccc2cnc(NC3CCN(S(=O)(=O)C4CC4)CC3)nc21 (single isomer, unassigned) [Example 74, (−)-2-{[1-(cyclopropylsulfonyl)piperidin-4-yl]amino}-8-[(1R*,2R*)-2-hydroxy-2-methylcyclopentyl]pyrido[2,3-d]pyrimidin-7(8H)-one]
0.21 | 2.47 | CC(F)(F)CNS(=O)(=O)N1CCC(Nc2ncc3ccc(=O)n([C@@H]4CCC[C@@]4(C)O)c3n2)CC1 (single isomer, unassigned) [Example 66, (−)-N-(2,2-difluoropropyl)-4-({8-[(1R*,2R*)-2-hydroxy-2-methylcyclopentyl]-7-oxo-7,8-dihydropyrido[2,3-d]pyrimidin-2-yl}amino)piperidine-1-sulfonamide]
0.48 | 3.18 | COC(C)(C)CNS(=O)(=O)N1CCC(Nc2ncc3ccc(=O)n([C@@H]4CCC[C@@]4(C)O)c3n2)CC1 (single isomer, unassigned) [Example 60, (−)-4-({8-[(1R*,2R*)-2-hydroxy-2-methylcyclopentyl]-7-oxo-7,8-dihydropyrido[2,3-d]pyrimidin-2-yl}amino)-N-(2-methoxy-2-methylpropyl)piperidine-1-sulfonamide]
0.19 | 0.88 | NS(=O)(=O)N1CCC(Nc2ncc3ccc(=O)n(C4CCCC4)c3n2)CC1 [Example 13, 4-[(8-cyclopentyl-7-oxo-7,8-dihydropyrido[2,3-d]pyrimidin-2-yl)amino]piperidine-1-sulfonamide]
1.25 | 0.53 | CS(=O)(=O)N1CCC(Nc2ncc3cc(C(F)F)c(=O)n([C@H]4CC[C@H](O)C4)c3n2)CC1 (relative stereo) [Example 134, (+)-6-(difluoromethyl)-8-[(1R*,3R*)-3-hydroxycyclopentyl]-2-{[1-(methylsulfonyl)piperidin-4-yl]amino}pyrido[2,3-d]pyrimidin-7(8H)-one]
